Experimental data from the supplement of paper PMC11061612.

Experiments:
[1] = tested on: KINGS-1 (Low Grade Glioma); assay: combination Emax (second highest fraction inhibited in the dose matrix, 72 h); higher = more inhibition; extreme values may be limits of the assay
Method in brief: (§1)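 After 24 hours at 37°C and 5% CO2 in 1536-well plates, cells in DMEM/F12 or RPMI plus 10% FBS received two-drug dose matrices for 72 hours. Viability came from CellTiter-Glo 2.0 luminescence and was scaled as inhibition, anchored at 0 by vehicle wells and at 1 by blank wells. Combination Emax is taken as the second-highest inhibition in the matrix, and Bliss excess as the observed combination effect less EA + EB − EA·EB, with EA and EB the single-agent effects.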

[2] = tested on: HSC-2 (Oral Cavity Carcinoma); assay: as above
Method in brief: as §1

[3] = tested on: NCI-N87 (Gastric Carcinoma); assay: as above
Method in brief: as §1

[4] = tested on: A704 (Kidney Carcinoma); assay: as above
Method in brief: as §1

[5] = tested on: RPMI-7951 (Melanoma); assay: as above
Method in brief: as §1

[6] = tested on: KYSE-150 (Esophageal Squamous Cell Carcinoma); assay: as above
Method in brief: as §1

[7] = tested on: EMC-BAC-2 (Non-Small Cell Lung Carcinoma); assay: as above
Method in brief: as §1

[8] = tested on: EW-3 (Ewing's Sarcoma); assay: as above
Method in brief: as §1

[9] = tested on: MFE-319 (Endometrial Carcinoma); assay: as above
Method in brief: as §1

[10] = tested on: IMR-5 (Neuroblastoma); assay: as above
Method in brief: as §1

[11] = tested on: KYSE-50 (Esophageal Squamous Cell Carcinoma); assay: as above
Method in brief: as §1

[12] = tested on: LC4-1 (B-Lymphoblastic Leukemia); assay: as above
Method in brief: as §1

[13] = tested on: LOU-NH91 (Squamous Cell Lung Carcinoma); assay: as above
Method in brief: as §1

[14] = tested on: HSC-2 (Oral Cavity Carcinoma); assay: Bliss excess, mean over the matrix (fraction); higher = more synergy
Method in brief: as §1

[15] = tested on: NCI-H2347 (Lung Adenocarcinoma); assay: as above
Method in brief: as §1

[16] = tested on: KLE (Endometrial Carcinoma); assay: as above
Method in brief: as §1

[17] = tested on: KP-2 (Pancreatic Carcinoma); assay: as above
Method in brief: as §1

[18] = tested on: SCC-3 (B-Cell Non-Hodgkin's Lymphoma); assay: as above
Method in brief: as §1

[19] = tested on: JHH-7 (Hepatocellular Carcinoma); assay: as above
Method in brief: as §1

[20] = tested on: ASH-3 (Thyroid Gland Carcinoma); assay: as above
Method in brief: as §1
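For Bliss excess, mean over the matrix in this document: after 72 h of two-drug dosing.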

SMILES	combination Emax [1]	combination Emax [2]	combination Emax [3]	combination Emax [4]	combination Emax [5]	combination Emax [6]	combination Emax [7]	combination Emax [8]	combination Emax [9]	combination Emax [10]	combination Emax [11]	combination Emax [12]	combination Emax [13]	Bliss excess [14]	Bliss excess [15]	Bliss excess [16]	Bliss excess [17]	Bliss excess [18]	Bliss excess [19]	Bliss excess [20]
CCN(CCO)CCCOc1ccc2c(Nc3cc(CC(=O)Nc4cccc(F)c4)[nH]n3)ncnc2c1 [AZD2811] + C=CCn1c(=O)c2cnc(Nc3ccc(N4CCN(C)CC4)cc3)nc2n1-c1cccc(C(C)(C)O)n1 [AZD1775] (first compound max 1 µM, partner max 1 µM)	0.276	0.43	0.66	0.392	0.697	0.533	0.223	0.402	0.578	0.998	0.301	0.896	0.383	0.0771	-0.0475	-0.0513	-0.001	-0.011	-0.0186	-0.016
CS(=O)(=O)CCNCc1ccc(-c2ccc3ncnc(Nc4ccc(OCc5cccc(F)c5)c(Cl)c4)c3c2)o1 [Lapatinib] + NC1(c2ccc(-c3nc4ccn5c(=O)[nH]nc5c4cc3-c3ccccc3)cc2)CCC1 [MK-2206] (first compound max 10 µM, 7x7, partner max 10 µM)	0.83	0.987	0.977			0.954		0.87	0.946			0.954		0.0806	-0.0315				-0.036	0.0178
CN(CCO)CC[C@H](CSc1ccccc1)Nc1ccc(S(=O)(=O)NC(=O)c2ccc(N3CCC([C@@H](O)c4ccccc4-c4ccc(Cl)cc4)CC3)cc2)cc1S(=O)(=O)C(F)(F)F [AZD4320] + C1CN(CCC1(C(=O)N[C@@H](CCO)C2=CC=C(C=C2)Cl)N)C3=NC=NC4=C3C=CN4 [Capivasertib] (first compound max 1 µM, 7x7, partner max 3 µM)	0.49	0.362	0.571	0.392	0.54	0.347	0.301	0.918		0.788	0.0686	1	0.494	-0.0379	-0.0533	-0.0467	-0.0583	-0.0506	-0.0256	-0.0192
Cc1c2c(nn1C)CSCc1cc(n(C)n1)CSc1cc(c3ccccc3c1)OCCCc1c(C(=O)O)n(C)c3c-2c(Cl)ccc13 [AZD5991] + Cc1cc2ncnn2cc1Nc1ncc2c(n1)n(C1CCOCC1)c(=O)n2C [AZD7648] (first compound max 1 µM, 7x7, partner max 10 µM)	0.326	0.844	0.492	0.259	0.91	0.57	0.678	0.727	0.471	1	0.284	0.968	0.278		-0.0472	-0.0598	-0.0103	-0.0119	-0.0598	-0.0739
C[C@@H](c1ccc2nccn2c1)n1nnc2ncc(-c3cnn(C)c3)nc21 [Savolitinib] + CN(CC[C@H](CSC1=CC=CC=C1)NC2=C(C=C(C=C2)S(=O)(=O)NC(=O)C3=CC=C(C=C3)N4CCC(CC4)[C@H](C5=CC=CC=C5C6=CC=C(C=C6)Cl)O)S(=O)(=O)C(F)(F)F)CCO [AZD4320] (first compound max 1 µM, 7x7, partner max 1 µM)				0.449	0.271	0.219	0.216		0.191	0.481	0.188		0.334		-0.0474	-0.0664	-0.0136	-0.0083		-0.0078
CC(=O)c1c(C)c2cnc(Nc3ccc(N4CCNCC4)cn3)nc2n(C2CCCC2)c1=O [Palbociclib] + CN(CC[C@H](CSC1=CC=CC=C1)NC2=C(C=C(C=C2)S(=O)(=O)NC(=O)C3=CC=C(C=C3)N4CCC(CC4)[C@H](C5=CC=CC=C5C6=CC=C(C=C6)Cl)O)S(=O)(=O)C(F)(F)F)CCO [AZD4320] (first compound max 10 µM, 7x7, partner max 1 µM)				0.935	0.678	0.607	0.366		0.31	0.949	0.37		0.618		-0.109	-0.0276	-0.0731	-0.0046		-0.0104
COc1nnc2ccc(N3CCC(c4ccc(OCCN5CCN(C)C(=O)[C@H]5C)cc4)CC3)nn12 [AZD5153] + CN(CC[C@H](CSC1=CC=CC=C1)NC2=C(C=C(C=C2)S(=O)(=O)NC(=O)C3=CC=C(C=C3)N4CCC(CC4)[C@H](C5=CC=CC=C5C6=CC=C(C=C6)Cl)O)S(=O)(=O)C(F)(F)F)CCO [AZD4320] (first compound max 1 µM, 7x7, partner max 1 µM)				0.768	0.647	0.607	0.661		0.476	0.984	0.732		0.781		-0.042	0.0847	0.0546	0.0235		0.107
